Source: patent publication US20250359578A1, “WATER-SOLUBLE CREATINE AGGLOMERATE” (Alzchem Trostberg GmbH, priority 2022, published 2025)

Assays:
Assay type in all cases: physicochemical
[1] = Determination of pourability (drainage funnel); parameters: key: Solid trickles through the 2.5 mm outlet: Grade 1; Solid trickles through the 5 mm outlet: Grade 2; Solid trickles through the 8 mm outlet: Grade 3; Solid trickles through the 12 mm outlet: Grade 4; Solid trickles through the 18 mm outlet: Grade 5; Solid does not trickle through the 18 mm outlet: Grade 6; conditions: grade by outlet diameter of test funnel, 50 mL sample; lower grade is better
Description: 2. Determination of Pourability (Drainage Funnel):
The test equipment consists of five test funnels with the same diameter (36 mm inner diameter) and 28 degree tilt, but with different outlet diameters (2.5 mm; 5 mm; 8 mm; 12 mm and 18 mm). A 50 mL sample of creatine or the creatine formulation is filled into the test funnel, whereby the outlet is closed from below so that no material can drain during filling. In the next step, the outlet is opened completely—without shaking the test funnel—so that the entire outlet cross-section is released. The evaluation parameter is the diameter at which the solid trickles through independently and without external influence.
The lower the grade, the better the pourability.

[2] = Determination of the angle of repose (DIN ISO 4324)
Description: 3. Determination of the Angle of Repose
The angle of repose was determined according to the method DIN ISO 4324 (1983-12) Surfactants; powders and granules; determination of the angle of repose. The smaller the angle of repose, the better the flow properties.

[3] = Determination of flowability (Evolution Powder Tester); conditions: compression, no time consolidation
Description: 4. Determination of Flowability
Flowability of solids (powders and agglomerates) is determined using the “Evolution Powder Tester” measuring device from PS Prozesstechnik GmbH, Basel, Switzerland. Flowability is shown in the dimensionless number [ffc]. The method used is determination by compression on the Evolution Powder Tester; no time consolidation is carried out. For this purpose, 25 mL of the solid is weighed into the measuring cell and placed in the measuring device. After starting the measurement, the solid is compressed in the measuring cell at a stamping speed of 15 mm per minute and a force (F1) of 10000 kPa for 30 seconds. The resulting solid compact in the measuring cell is then loaded again with a stamping speed of 10 mm per minute and slowly increasing force (F2) until the solid compact breaks. The ratio of the force (F1) for compression and the force (F2) for breaking the compact corresponds to the flowability [ffc] and is calculated using the formula: […]
The following assessment applies to the classification of flowability [ffc]: […]

[4] = Determination of dustiness (DustView II); conditions: 30.0 g sample, maximum attenuation plus value at 30 seconds
Description: 5. Determination of Dustiness
The dustiness of solids (powders and agglomerates) is represented in the dimensionless dust number. The dust number is determined using the DustView II dust measuring device from Palas GmbH, Karlsruhe.
Thereby, 30.0 g of a sample is weighed and placed in the funnel on the flap. The measurement is then started by pressing a button on the control panel. The flap opens and the solid falls freely into the dust box. The impact of the solid material whirls up the dust particles. As a result, the light beam emitted by the laser is attenuated by the swirling dust and the attenuated light beam is detected at the receiver. The degree of attenuation (transmission signal) compared to the light beam emitted by the light source is a measure of the dustiness of the solid. A value of 100 means the maximum possible attenuation of the light beam and a value of 0 means no attenuation of the light beam. To determine the dust number, the value of the maximum attenuation of the light beam is added to the value at 30 seconds after the start of the measurement and output as the dust number.
The lower the dust number, the less dusty the solid is.

[5] = Determination of the bulk density (DIN ISO 697)
Description: 6. Determination of the Bulk Density
The bulk density was determined according to the method DIN ISO 697 (1984-01) surfactants; detergents; determination of bulk density; method by measuring the mass of a given volume.
The higher the bulk density, the more advantageous the handling.

[6] = Determination of the grain size distribution (laser diffraction, HELOS/KR)
Description: 7. Determination of the Grain Size Distribution
The grain size distribution was determined using a laser diffraction method on a “HELOS/KR” grain size measuring device from Sympatec GmbH. The R6 measuring aperture was used, which covers a measuring range of 0.5 to 1750 μm. The sample was fed via a vibrating chute with 60% power and a dispersion pressure of 2.5 bar. The software version “WINDOX 5.1.2.0, LD” was used for evaluation. Setting the trigger conditions: Time base 100.00 ms, start at c.opt>=1.0%, validity c.opt from 1.0% to 14.0%, stop at 5.000s c.opt<=0.9% or 10.000s real time. The x10, x50 and x90 values were used to assess the agglomerate quality, represented as the distribution sum Q3 in a histogram of the grain size distribution.

[7] = Determination of the dissolution rate (mass of filter residue); conditions: 1.75 g in 175 ml water at 23° C., stirred 10 seconds
Text: The moist filter residue is dried. The mass of the filter residue serves as a measure of the dissolution rate; the lower the mass, the better the dissolution rate.

Compound | Pourability [1] | Angle of repose [2] | Flowability [ffc] [3] | Dustiness [dust number] [4] | Bulk density [5] | Grain size distribution ×10 value ([6]; distribution sum Q3) | Grain size distribution ×90 value ([6]; distribution sum Q3) | Grain size distribution ×50 value ([6]; distribution sum Q3, monohydrate) | Undissolved portion to 1.75 g [7] | Grain size distribution ×50 value ([6]; distribution sum Q3, listed as non-ground creatine monohydrate, monohydrate)
CN(CC(=O)O)C(=N)N.O [Example 6, creatine monohydrate] | 6 | 54 ° | 1.9 | 23.2 | 270 g/L | 1.32 μm | 45.8 μm | 13.0 μm |  | 
CN(CC(=O)O)C(=N)N.O [creatine monohydrate] |  |  |  |  |  |  |  |  | 632.9 mg | 171 μm
